B1: ibj1c.pk0002.f9 (protein)
chain: MKFLYGIILIALFLTVMIATHSEARCPNCFTTNPNAEADCKKCCGNRWGKCAGYQCVCPMK

Tested on: Heliothis virescens larvae
Assay: Feeding bioassay of recombinant baculoviruses expressing the scorpion peptides on Heliothis virescens larvae
Format: in vivo
Conditions: four 5-day-old larvae fed 200 mg viral-contaminated diet; symptoms examined 4, 5, 6 and 7 days after fresh diet added
Source text: It has been shown that single amino acids residues are important for receptor binding and for biological activity of K-channel toxins (Sabatier et al. (1994) Int. J. Peptide Protein Res. 43:486-495). The cDNAs described herein were cloned into baculoviruses and used to test their activity against Lepidopteran.
The DNA encoding the peptides was amplified by performing PCR and adding a Bgl II restriction site at the 5′ end and an Eco RI site at the 3′ end to allow cloning into the baculovirus transfer vector pAcUW21 (BD Biosciences-PharMingen, San Diego, Calif.). After amplification in E. coli the presence of the appropriate fragments was confirmed by restriction enzyme analysis. Colonies containing the appropriate fragments were isolated, propagated, and plasmid DNA was prepared for lipofectin-mediated co-transfection into insect cells with linearized polyhedrin-negative AcNPV. Co-transfections were performed essentially as described in Example 7. Polyhedrin-positive recombinant viruses were isolated employing standard plaque purification protocols and were mixed with a plug of HV diet (www.Bio-Serv.com) and fed to Heliothis virescens larvae.
Depicted in Table 3 are the results from two independent experiments in which four 5-day-old larvae were fed 200 mg of viral-contaminated diet. The larvae were allowed to eat for 2 days or until the viral-contaminated diet was consumed, then fresh 1 g diet plugs were added to allow continued feeding.
For “ibj1c.pk007.k8: Buthotus judaicus scorpion cobatoxin 1 homolog; mature toxin amino acids 22-58 of SEQ ID NO:2, expressed from recombinant baculovirus (NFKVEAAQCYSSDCRVKCAAMGFNSGKCINSKCKCYK)”, the “Activity of Scorpion Potassium Channel Modifiers on Heliothis virescens Larvae, Experiment 1” value (“Activity … Experiment 1” below) was “Slightly Active” and the “Activity of Scorpion Potassium Channel Modifiers on Heliothis virescens Larvae, Experiment 2” value (“Activity … Experiment 2” for short) was “Slightly Active”.
In the case of “ibj1c.pk006.i20: Buthotus judaicus scorpion kaliotoxin 2 precursor homolog; mature toxin amino acids 23-61 of SEQ ID NO:4, expressed from recombinant baculovirus (QYELDVTCMGGADNCVKPCYDKYGTTKTKCINDRCNCYP)”, the “Activity … Experiment 1” value is reported as “Slightly Active” and the “Activity … Experiment 2” value is reported as “Slightly Active”.
For “ibj1c.pk009.i6: Buthotus judaicus scorpion kaliotoxin 2 precursor homolog; mature toxin amino acids 23-59 of SEQ ID NO:6, expressed from recombinant baculovirus (QVETNVKCTGGSCASTCKRVIGVAAGKCINGRCVCYP)”, the “Activity … Experiment 1” value was “Slightly Active” and the “Activity … Experiment 2” value was “Slightly Active”.
With “ibj1c.pk005.n9: Buthotus judaicus scorpion potassium channel blocking toxin 15-1 homolog; mature toxin amino acids 23-58 of SEQ ID NO:18, expressed from recombinant baculovirus (DLIDVKCISSQECWIACKKVTGRFQGKCQNKQCRCY)” the “Activity … Experiment 1” value was “Slightly Active” and the “Activity … Experiment 2” value was “Slightly Active”.
With “ibj1c.pk005.e21: Buthotus judaicus scorpion leiuropeptide III homolog; mature toxin amino acids 31-59 of SEQ ID NO:10, expressed from recombinant baculovirus (VGCEDCPEHCSQQNARAKCENDKCVCEPK)” the “Activity … Experiment 1” value was “Slightly Active” and the “Activity … Experiment 2” value was “Active (scored as active if the larvae became irritated and had contractions and died)”.
For “ibj1c.pk007.c13: Buthotus judaicus scorpion leiurotoxin I homolog; mature toxin amino acids 38-70 of SEQ ID NO:12, expressed from recombinant baculovirus (AFCNLRRCQLICRESGLLGKCIGDRCECVPHGK)”, the “Activity … Experiment 1” value was “Slightly Active” and the “Activity … Experiment 2” value was “Slightly Active”.
With “ibj1c.pk006.h8: Buthotus judaicus scorpion potassium channel blocking toxin 15-1 homolog; mature toxin amino acids 23-58 of SEQ ID NO:16, expressed from recombinant baculovirus (GLIDVRCSASRECWEACRKVTGSGQGKCQNNQCRCY)” the “Activity … Experiment 1” value was “Slightly Active” and the “Activity … Experiment 2” value was “Active (scored as active if the larvae became irritated and had contractions and died)”.
In the case of “ibj1c.pk008.d3: Buthotus judaicus scorpion leiuropeptide I homolog; mature toxin amino acids 29-56 of SEQ ID NO:8, expressed from recombinant baculovirus (VDCEECPFHCAGKNAIPTCDDGECNCNV)”, the “Activity … Experiment 1” value is reported as “Slightly Active” and the “Activity … Experiment 2” value is reported as “Slightly Active”.
For B1, the “Activity … Experiment 1” value was “Slightly Active” and the “Activity … Experiment 2” value was “Slightly Active”.

Tested on: Ca+2-activated K-channels and voltage-dependent K-channel (K(v) 1.3)
Assay: not given
Conditions: Maxi-K, medium- and small-conductance Ca+2-activated K-channels and K(v) 1.3; cited from earlier work
For charybdotoxin [ChTX], the “Potency of channel inhibition” value is listed as “in the low nanomolar range”.
